Assays:
Assay in all cases: KinomeScan profiling
Assay type in all cases: binding
MYLK4 = molecular target: T1, MYLK4 (Homo sapiens, UniProt Q86YV6); conditions: MYLK4, 1 μM; read-out: % control
T1 sequence (Q86YV6 1-388): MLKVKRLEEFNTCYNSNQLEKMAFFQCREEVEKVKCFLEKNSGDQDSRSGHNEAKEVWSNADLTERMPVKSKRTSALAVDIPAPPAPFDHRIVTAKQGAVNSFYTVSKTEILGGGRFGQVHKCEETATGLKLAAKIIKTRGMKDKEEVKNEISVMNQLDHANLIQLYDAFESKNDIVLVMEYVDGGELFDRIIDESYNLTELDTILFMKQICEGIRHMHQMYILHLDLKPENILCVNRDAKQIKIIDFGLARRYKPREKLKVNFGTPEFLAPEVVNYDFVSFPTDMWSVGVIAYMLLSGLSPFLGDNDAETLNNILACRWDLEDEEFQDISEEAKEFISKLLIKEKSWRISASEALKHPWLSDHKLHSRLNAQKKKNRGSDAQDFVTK
In short: (§1)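 Single-point competition binding screen: 1 μM, DMSO, 468 kinases. Results reported as % control from RLU, normalised to DMSO and positive-control wells. Activity threshold: <35% control.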

GSK3A = GSK3A (Homo sapiens, UniProt P49840); conditions: read-out: % control
GSK3A, sequence (P49840 whole entry): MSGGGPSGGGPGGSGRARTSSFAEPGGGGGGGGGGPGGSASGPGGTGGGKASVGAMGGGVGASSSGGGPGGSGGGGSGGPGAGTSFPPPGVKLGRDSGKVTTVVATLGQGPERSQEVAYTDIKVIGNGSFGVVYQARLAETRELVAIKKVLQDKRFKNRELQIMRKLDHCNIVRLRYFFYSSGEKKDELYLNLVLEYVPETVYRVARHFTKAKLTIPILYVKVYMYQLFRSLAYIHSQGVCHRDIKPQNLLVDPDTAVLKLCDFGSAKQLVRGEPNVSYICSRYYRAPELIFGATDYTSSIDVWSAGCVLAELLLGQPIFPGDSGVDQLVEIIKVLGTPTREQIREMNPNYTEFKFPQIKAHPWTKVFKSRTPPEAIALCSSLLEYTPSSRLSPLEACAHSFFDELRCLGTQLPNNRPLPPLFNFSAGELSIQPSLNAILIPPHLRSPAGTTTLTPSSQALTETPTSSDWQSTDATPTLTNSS
In short: as §1

TRPM6 = TRPM6 (Homo sapiens, UniProt Q9BX84); conditions: TRPM6, 1 μM; read-out: % control
TRPM6, sequence (Q9BX84 whole entry): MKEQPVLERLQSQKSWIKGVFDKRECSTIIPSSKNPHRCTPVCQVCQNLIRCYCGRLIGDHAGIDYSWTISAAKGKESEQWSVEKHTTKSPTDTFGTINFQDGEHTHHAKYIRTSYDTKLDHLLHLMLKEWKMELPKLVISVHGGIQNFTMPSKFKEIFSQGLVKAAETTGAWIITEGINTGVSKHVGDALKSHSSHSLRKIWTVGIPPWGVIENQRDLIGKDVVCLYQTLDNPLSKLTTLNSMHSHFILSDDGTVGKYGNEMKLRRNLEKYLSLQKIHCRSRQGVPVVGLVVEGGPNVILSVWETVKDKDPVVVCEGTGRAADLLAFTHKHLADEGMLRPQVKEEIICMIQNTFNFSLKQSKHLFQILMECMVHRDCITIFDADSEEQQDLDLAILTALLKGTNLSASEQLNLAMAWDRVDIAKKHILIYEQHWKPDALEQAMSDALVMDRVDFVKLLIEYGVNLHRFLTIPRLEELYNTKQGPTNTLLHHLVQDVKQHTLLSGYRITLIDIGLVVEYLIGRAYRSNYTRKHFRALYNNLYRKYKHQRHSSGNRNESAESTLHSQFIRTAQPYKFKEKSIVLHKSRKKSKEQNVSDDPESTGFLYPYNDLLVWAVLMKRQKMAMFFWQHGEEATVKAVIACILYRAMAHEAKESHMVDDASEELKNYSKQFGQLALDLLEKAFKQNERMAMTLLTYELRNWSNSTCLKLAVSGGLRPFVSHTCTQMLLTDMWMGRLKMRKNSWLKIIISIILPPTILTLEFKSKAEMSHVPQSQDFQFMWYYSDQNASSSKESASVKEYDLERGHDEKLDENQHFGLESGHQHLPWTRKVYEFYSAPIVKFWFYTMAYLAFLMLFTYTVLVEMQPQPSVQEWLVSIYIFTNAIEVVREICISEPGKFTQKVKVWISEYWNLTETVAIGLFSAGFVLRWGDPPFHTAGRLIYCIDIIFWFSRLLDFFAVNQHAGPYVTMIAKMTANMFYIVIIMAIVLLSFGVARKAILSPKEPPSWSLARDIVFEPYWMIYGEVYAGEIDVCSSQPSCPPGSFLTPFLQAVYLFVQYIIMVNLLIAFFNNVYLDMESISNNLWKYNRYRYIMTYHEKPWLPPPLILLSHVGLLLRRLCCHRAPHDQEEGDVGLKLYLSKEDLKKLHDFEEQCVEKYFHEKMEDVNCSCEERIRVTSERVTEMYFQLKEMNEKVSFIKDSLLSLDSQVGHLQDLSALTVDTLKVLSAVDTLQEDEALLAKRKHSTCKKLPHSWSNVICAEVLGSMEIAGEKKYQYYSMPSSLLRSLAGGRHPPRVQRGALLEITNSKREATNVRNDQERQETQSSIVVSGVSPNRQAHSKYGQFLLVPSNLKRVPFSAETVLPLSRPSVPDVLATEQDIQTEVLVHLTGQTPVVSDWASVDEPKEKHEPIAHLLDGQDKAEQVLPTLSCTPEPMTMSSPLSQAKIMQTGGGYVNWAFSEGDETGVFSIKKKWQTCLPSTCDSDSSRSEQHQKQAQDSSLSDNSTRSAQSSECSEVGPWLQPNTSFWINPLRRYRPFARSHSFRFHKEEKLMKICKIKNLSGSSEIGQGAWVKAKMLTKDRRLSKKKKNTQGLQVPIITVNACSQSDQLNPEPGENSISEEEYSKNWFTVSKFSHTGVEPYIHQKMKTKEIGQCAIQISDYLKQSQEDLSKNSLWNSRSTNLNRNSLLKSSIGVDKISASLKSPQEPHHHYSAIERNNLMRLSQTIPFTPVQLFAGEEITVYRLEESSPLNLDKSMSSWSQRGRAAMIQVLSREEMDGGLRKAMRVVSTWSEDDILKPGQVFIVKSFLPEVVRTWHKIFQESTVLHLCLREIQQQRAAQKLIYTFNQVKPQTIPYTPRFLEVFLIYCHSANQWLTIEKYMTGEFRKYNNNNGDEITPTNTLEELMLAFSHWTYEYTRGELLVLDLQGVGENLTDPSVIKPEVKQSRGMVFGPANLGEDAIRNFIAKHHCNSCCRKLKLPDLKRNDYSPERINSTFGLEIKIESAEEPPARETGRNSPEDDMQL
In short: as §1

LATS1 = molecular target: T2, LATS1 (Homo sapiens, UniProt O95835); conditions: LATS1, 1 μM; read-out: % control
T2 construct: purchased KinomeScan®
T2 sequence (O95835 1-1130): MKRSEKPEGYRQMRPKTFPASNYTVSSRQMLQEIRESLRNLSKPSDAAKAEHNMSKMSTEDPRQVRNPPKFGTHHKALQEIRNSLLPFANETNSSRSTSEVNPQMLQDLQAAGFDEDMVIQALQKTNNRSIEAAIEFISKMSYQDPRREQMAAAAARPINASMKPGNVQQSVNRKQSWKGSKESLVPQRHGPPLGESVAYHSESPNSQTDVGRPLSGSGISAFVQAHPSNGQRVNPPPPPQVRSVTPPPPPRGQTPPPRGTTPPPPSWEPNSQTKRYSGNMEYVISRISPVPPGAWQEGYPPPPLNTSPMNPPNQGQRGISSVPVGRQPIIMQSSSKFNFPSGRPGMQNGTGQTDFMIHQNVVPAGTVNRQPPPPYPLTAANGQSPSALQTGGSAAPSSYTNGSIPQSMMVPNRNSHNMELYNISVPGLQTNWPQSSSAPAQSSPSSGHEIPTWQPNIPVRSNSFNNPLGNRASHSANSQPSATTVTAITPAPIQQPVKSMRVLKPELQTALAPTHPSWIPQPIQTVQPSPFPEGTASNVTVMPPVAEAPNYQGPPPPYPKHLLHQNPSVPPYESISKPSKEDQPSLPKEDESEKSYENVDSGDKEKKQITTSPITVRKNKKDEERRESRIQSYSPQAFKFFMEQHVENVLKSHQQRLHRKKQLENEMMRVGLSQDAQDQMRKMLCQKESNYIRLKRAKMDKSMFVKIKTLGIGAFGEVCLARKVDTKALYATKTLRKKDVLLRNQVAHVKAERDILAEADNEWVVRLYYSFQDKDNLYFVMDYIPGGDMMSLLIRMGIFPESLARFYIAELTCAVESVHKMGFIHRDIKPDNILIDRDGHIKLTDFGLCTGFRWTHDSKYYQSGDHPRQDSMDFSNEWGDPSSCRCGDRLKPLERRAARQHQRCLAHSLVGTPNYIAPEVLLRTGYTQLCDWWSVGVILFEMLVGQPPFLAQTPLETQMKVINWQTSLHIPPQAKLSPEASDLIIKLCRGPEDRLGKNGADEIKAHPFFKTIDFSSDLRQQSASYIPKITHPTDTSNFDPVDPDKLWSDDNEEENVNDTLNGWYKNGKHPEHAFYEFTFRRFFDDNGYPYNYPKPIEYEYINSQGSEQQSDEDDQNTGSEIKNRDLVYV
In short: as §1

MST1R = MST1R (Homo sapiens, UniProt Q04912); conditions: read-out: % control
In short: as §1

LRRK2(G2019S) = LRRK2(G2019S) (Homo sapiens, UniProt Q5S007, G2019S); conditions: read-out: % control
LRRK2(G2019S), sequence (Q5S007 whole entry G2019S): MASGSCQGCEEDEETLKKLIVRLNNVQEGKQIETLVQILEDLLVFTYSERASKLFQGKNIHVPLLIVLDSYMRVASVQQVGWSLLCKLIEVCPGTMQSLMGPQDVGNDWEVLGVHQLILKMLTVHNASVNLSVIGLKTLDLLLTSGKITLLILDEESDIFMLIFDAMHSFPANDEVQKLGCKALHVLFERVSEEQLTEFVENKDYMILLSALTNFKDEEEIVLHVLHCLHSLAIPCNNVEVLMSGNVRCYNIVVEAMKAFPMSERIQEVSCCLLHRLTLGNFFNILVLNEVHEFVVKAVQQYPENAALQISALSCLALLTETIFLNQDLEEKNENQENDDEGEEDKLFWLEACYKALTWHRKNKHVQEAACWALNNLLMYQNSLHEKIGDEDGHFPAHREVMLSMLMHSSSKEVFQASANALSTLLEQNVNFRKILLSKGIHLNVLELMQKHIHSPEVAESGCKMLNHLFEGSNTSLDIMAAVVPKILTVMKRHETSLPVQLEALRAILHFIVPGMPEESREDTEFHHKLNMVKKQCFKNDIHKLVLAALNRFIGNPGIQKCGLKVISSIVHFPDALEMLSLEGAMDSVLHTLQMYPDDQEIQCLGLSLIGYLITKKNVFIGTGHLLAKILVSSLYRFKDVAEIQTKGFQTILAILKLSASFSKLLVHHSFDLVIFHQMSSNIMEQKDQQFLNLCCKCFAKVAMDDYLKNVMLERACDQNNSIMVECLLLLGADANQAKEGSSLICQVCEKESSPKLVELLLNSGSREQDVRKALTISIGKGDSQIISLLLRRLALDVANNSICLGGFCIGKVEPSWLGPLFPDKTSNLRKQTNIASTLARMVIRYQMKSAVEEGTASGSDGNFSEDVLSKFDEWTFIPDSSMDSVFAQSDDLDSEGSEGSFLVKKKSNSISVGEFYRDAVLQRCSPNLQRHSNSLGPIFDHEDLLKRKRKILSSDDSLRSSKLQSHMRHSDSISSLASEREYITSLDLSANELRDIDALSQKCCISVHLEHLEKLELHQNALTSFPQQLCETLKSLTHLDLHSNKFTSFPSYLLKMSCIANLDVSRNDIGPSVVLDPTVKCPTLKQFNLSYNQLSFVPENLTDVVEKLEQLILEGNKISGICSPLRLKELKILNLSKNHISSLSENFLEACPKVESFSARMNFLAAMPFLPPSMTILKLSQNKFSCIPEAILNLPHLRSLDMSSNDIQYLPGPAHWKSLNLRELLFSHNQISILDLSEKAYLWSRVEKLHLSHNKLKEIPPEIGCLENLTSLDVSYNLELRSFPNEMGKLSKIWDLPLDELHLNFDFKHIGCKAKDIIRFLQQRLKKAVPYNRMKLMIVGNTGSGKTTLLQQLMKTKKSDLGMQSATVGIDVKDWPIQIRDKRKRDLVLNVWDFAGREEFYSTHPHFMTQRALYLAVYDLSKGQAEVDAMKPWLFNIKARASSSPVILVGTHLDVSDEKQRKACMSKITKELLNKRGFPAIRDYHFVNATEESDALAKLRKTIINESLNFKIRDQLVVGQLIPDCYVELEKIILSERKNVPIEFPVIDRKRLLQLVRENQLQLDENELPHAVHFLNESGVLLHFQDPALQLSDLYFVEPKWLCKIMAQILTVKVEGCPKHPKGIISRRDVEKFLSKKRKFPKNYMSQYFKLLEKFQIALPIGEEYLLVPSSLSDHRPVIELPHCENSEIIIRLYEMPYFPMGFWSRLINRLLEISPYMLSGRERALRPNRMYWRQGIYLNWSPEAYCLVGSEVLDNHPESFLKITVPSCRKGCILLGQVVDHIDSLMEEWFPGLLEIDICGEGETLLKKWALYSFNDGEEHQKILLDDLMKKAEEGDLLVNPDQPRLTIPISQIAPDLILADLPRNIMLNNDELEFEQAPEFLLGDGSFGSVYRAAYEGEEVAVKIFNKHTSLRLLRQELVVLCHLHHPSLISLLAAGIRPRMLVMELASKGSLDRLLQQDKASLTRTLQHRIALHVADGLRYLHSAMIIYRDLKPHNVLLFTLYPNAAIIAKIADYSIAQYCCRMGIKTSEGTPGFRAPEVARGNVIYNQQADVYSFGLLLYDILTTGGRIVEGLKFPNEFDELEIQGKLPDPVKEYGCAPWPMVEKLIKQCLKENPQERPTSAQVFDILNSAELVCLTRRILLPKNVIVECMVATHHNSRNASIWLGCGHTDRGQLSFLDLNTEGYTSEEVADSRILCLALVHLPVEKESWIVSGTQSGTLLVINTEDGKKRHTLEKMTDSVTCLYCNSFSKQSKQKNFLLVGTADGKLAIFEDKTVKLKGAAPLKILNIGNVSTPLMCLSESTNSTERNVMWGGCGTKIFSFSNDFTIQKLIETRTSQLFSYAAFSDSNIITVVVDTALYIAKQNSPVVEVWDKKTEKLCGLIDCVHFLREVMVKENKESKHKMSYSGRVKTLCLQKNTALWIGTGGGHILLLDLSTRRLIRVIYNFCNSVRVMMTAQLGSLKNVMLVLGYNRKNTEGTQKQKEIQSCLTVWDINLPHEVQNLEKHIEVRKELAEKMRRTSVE
In short: as §1

DLK = molecular target: T3, DLK (Homo sapiens, UniProt Q12852); conditions: read-out: % control
T3 sequence (Q12852 1-859): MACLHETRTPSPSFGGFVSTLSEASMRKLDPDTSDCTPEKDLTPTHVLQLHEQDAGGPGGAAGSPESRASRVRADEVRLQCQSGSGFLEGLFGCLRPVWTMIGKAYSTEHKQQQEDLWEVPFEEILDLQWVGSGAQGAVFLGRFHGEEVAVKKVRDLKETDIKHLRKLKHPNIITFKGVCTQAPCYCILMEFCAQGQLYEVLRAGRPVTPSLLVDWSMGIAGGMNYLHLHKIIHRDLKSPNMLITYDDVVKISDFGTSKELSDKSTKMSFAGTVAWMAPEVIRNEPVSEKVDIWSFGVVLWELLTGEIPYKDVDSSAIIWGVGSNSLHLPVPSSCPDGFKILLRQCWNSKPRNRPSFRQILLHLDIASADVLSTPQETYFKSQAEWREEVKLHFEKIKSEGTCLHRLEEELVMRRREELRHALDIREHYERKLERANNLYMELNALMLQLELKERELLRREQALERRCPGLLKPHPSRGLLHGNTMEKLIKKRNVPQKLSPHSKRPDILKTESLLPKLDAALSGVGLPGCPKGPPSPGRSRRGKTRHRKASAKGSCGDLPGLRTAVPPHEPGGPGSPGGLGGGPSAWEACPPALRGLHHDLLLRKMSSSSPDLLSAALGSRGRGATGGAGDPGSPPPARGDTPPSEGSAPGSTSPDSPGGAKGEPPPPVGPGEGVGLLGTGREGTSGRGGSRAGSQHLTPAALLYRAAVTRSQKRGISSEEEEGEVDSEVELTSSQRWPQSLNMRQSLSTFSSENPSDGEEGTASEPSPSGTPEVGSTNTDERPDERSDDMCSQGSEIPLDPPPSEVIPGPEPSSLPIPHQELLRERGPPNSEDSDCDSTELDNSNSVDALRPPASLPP
In short: as §1

SMILES | remaining binding at 1 µM (MYLK4) | remaining binding at 1 µM (GSK3A) | remaining binding at 1 µM (TRPM6) | remaining binding at 1 µM (LATS1) | remaining binding at 1 µM (MST1R) | remaining binding at 1 µM (LRRK2(G2019S)) | remaining binding at 1 µM (DLK)
CNc1c(-c2cnn([C@H]3CCN(C(C)=O)C[C@@H]3F)c2)cnc2[nH]cc(Cl)c12 [Compound 77, 1-((3S,4S)-4-(4-(3-chloro-4-(methylamino)-1H-pyrrolo[2,3-b]pyridin-5-yl)-1H-pyrazol-1-yl)-3-fluoropiperidin-1-yl)ethan-1-one] | 90% | 98% | 89% | 91% | 100% | 11% | 14%
CNc1c(-c2ccc(C(=O)N3CCC(N4CCOCC4)CC3)cc2)cnc2[nH]cc(Cl)c12 [Compound 96, (4-(3-chloro-4-(methylamino)-1H-pyrrolo[2,3-b]pyridin-5-yl)phenyl)(4-morpholinopiperidin-1-yl)methanone] | 100% | 65% | 82% | 100% | 88% | 3.2% | 24%
O=C(c1ccc(-c2cnc3[nH]cc(Cl)c3c2NC2CCCC2)cc1)N1CCC(N2CCOCC2)CC1 [Compound 101, (4-(3-chloro-4-(cyclopentylamino)-1H-pyrrolo[2,3-b]pyridin-5-yl)phenyl)(4-morpholinopiperidin-1-yl)methanone] | 95% | 42% | 100% | 100% | 77% | 22% | 65%

Reference: patent publication US12275731B2, “Azaindole inhibitors of wild-type and mutant forms of LRRK2” (DANA-FARBER CANCER INSTITUTE, INC., priority 2018, dated 2025)
